target: Protein Tat (Human immunodeficiency virus type 1 group M subtype B (isolate HXB2)) (UniProt P04608); assay: HIV-1 Tat–TAR interaction blockers – biochemical, fluorescence polarization, FAM-labeled TAR RNA, counter-screen for Vif-APOBEC3G degradation inhibitor project, dose response (AID 1117361); details: Tat-TAR RNA binding
Sequence (P04608 whole entry, looked up): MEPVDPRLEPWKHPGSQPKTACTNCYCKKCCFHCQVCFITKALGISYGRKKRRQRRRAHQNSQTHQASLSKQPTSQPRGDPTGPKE

Going from CCOc1cccc(OCC)c2c(C)[n+](CC3CCCO3)c(C)c1-2 (configuration not stated) to COc1ccc(C2=NCC(=O)N(CC(=O)NCc3ccco3)c3sc4c(c32)CCCC4)cc1OC, the IC50 rises from 4.16 µM to 82.3 µM (20-fold). The first is the more potent here.

Going from O/N=C1\CCC\C1=C/c1ccco1 to N#Cc1c(-c2ccco2)c2c([nH]c1=S)CCCC2, the IC50 falls from 27.2 µM to 8.34 µM (3.3-fold).

Going from N#C/C(=C/c1ccc(Br)o1)C(N)=S to COCCCNC(=O)/C(C#N)=C/c1ccc(OCC(=O)O)c(OC)c1, the IC50 rises from 16 µM to 34.4 µM (2.1-fold). The first is the more potent here.

Going from COc1ccc(-c2cc(-c3ccco3)[nH]c(=O)c2C#N)cc1 to Cc1cc(-c2cc(-c3ccc(Cl)cc3)nc(N)c2C#N)co1, the IC50 rises from 15.1 µM to 83.6 µM (5.5-fold). The first is the more potent here.

First: Clc1ccc(-c2cn3cccnc3n2)cc1Cl
Second: Cc1nc2ncccn2c1-c1csc(NCc2ccco2)n1
The IC50 of the first is 15-fold higher: 90.9 µM for the first, 6.08 µM for the second.

First: Cc1cccc(N2C(=O)NC(=O)/C(=C/c3cc4c(cc3[N+](=O)[O-])OCO4)C2=O)c1
Second: Cc1cccc(-n2nc3c(c2NC(=O)c2ccc(Br)o2)CSC3)c1
The IC50 of the first is 95-fold lower: 0.906 µM for the first, 85.9 µM for the second.

First: O=C(Nc1cc(Cl)cc(Cl)c1)c1coc(=O)c(Br)c1
Second: Cc1cc(C)cc(Nc2ccc(C(=O)O)cc2N)c1
The IC50 of the first is 2-fold lower: 23.5 µM for the first, 47.1 µM for the second. The first is the more potent here.

Going from CCCOc1ccc(Cc2nn3c(=O)/c(=C/c4ccco4)sc3nc2=O)cc1 to CC1=C(C(=O)Nc2ccccc2)C(c2ccc(C)o2)n2c(s/c(=C\c3ccco3)c2=O)=N1 (configuration not stated), the IC50 rises from 2.68 µM to 5.9 µM (2.2-fold). The first is the more potent here.

First: CCC(=Nc1ccc(N)cc1)C1=C(O)C(C(=O)OC)C(C)(C)CC1=O (configuration not stated)
Second: CCn1c(C)nc2cc(C(=O)N/N=C/c3ccc(O)c(O)c3O)ccc21
The IC50 of the first is 2.8-fold lower: 5.48 µM for the first, 15.3 µM for the second.

Compared with COc1cccc(C2C(C#N)=C(N)OC3=C2C(=O)CC(c2ccco2)C3)c1OCc1ccc(F)cc1 (configuration not stated), O=C(Nc1ccccc1)C1=C(O)CC(c2ccco2)CC1=Nc1ccccc1 (configuration not stated) is 5.8-fold higher in IC50: 12.2 µM for the first, 70.3 µM for the second. The first is the more potent here.

Going from COCc1cc(C)nc(NCCO)c1C#N to CCOC(=O)Cc1cc(=O)n2[nH]c(C)cc2n1, the IC50 rises from 1.44 µM to 78.3 µM (54-fold). The first is the more potent here.

O=C(CCS(=O)(=O)c1ccc(Br)cc1)NC1CCCC1 and Cc1ccc(S(=O)(=O)OCC(=O)Nc2ccc(C(=O)O)c(O)c2)cc1 are within 1.5-fold of each other in IC50: 50.8 µM for the first, 75.3 µM for the second.

Going from COc1cccc(NS(=O)(=O)c2ccc3c(c2)C2C=CCC2C(c2ccc(C(=O)O)cc2)N3)c1 (configuration not stated) to O=C(O)c1ccc2c(c1)C1C=CCC1C(c1ccncc1)N2 (configuration not stated), the IC50 rises from 3.59 µM to 6.37 µM (1.8-fold).

First: C=C(C)C(=O)Nc1cccc(C2=NOC3(C2)C[C@@H](C(N)=O)N(C(=O)CCCCC)C3)c1 (some centres not stated)
Second: CC(/C=C1\SC(=S)N(CCCC(=O)Nc2ccc(C(=O)O)c(O)c2)C1=O)=C\c1ccccc1
The IC50 of the first is 4.5-fold lower: 5.76 µM for the first, 26 µM for the second.

First: CCN(CC)c1ccc(NC2CC(=O)N(CCc3ccc(OC)cc3)C2=O)cc1 (configuration not stated)
Second: COC(=O)C1=C(C)N(Cc2ccccc2)C(=O)/C1=C\c1ccco1
The IC50 of the first is 2.9-fold lower: 27.3 µM for the first, 79.7 µM for the second. The first is the more potent here.

First: Cc1ccc(Cn2c(=S)[nH]c3ccc(N4CCOCC4)cc3c2=O)o1
Second: Cc1ccc2cc(C(c3nnnn3Cc3ccccc3)N3CCc4ccccc43)c(=O)[nH]c2c1 (configuration not stated)
The IC50 of the first is 12-fold lower: 3.98 µM for the first, 46.4 µM for the second. The first is the more potent here.

First: CC(=O)c1ccc(S(=O)(=O)Nc2cccc(-n3cnnn3)c2)cc1
Second: O=C(C1CCCN1S(=O)(=O)c1cccc2cccnc12)N1CCN(c2ccccc2)CC1 (configuration not stated)
The IC50 of the first is 1.6-fold higher: 74.2 µM for the first, 46.8 µM for the second. The second is the more potent here.

Compared with O=C1CC(c2ccco2)CC(O)=C1C=Nc1cc(Cl)ccc1O (configuration not stated), CN(C(=O)COC(=O)c1cc(-c2ccco2)nc2ccccc12)C1CCS(=O)(=O)C1 (configuration not stated) is 3.2-fold lower in IC50: 20.5 µM for the first, 6.36 µM for the second.

Compared with FC(F)(F)c1cc(-c2ccco2)nc(NCc2ccco2)n1, c1coc(-c2nc3ccccc3nc2-c2ccco2)c1 is 4.4-fold lower in IC50: 28.5 µM for the first, 6.44 µM for the second. The second is the more potent here.

CC(=O)N1CCN(c2nc(-c3ccco3)c3c(c2C#N)CC(C)(C)SC3)CC1 and CC(C)CC(=O)Nc1nnc(-c2ccco2)s1 are within 1.5-fold of each other in IC50: 58.8 µM for the first, 53.8 µM for the second.

Compared with CCCCCC#CCC#CCC#CCC#CCCCC(=O)O, O=C(O)C1Nc2ccc(Br)cc2C2C=CCC12 (configuration not stated) is 1.6-fold higher in IC50: 2.38 µM for the first, 3.73 µM for the second.

Compared with Oc1ccc(N=Cc2ccc(OCc3ccccc3)cc2)cc1, O=C(N/N=C/c1cn(Cc2cccc(F)c2)c2ccccc12)c1cc(O)cc(O)c1 is 3.2-fold lower in IC50: 47.5 µM for the first, 15 µM for the second.

Compared with Cc1cccc(NC(=O)CSc2nnc(-c3ccco3)c(-c3ccco3)n2)c1C, CN(C)C(CNC(=O)c1cccnc1Sc1ccccc1)c1ccco1 (configuration not stated) is 4.6-fold higher in IC50: 15 µM for the first, 68.7 µM for the second.

Compared with O=c1cc2c(=O)oc3cc(O)c(O)oc3c2c(O)c1O, O=C(O)c1ccc(COc2c(F)c(F)c(F)c(F)c2F)o1 is 7.4-fold higher in IC50: 12.3 µM for the first, 90.6 µM for the second.

Going from O=C(Nc1ccc(F)cc1)C(c1ccccc1)N1CCN(S(=O)(=O)c2ccc3ccccc3c2)CC1 (configuration not stated) to Cc1cc(C(=O)CCl)c(C)n1-c1c(C)n(C)n(-c2ccccc2)c1=O, the IC50 rises from 1.23 µM to 20.3 µM (17-fold). The first is the more potent here.

Compared with CC1(OC(=O)C2CCCC2)C(=O)C=C2C=C(c3ccsc3)OC=C2C1=O (configuration not stated), CC(=O)OC1COC(n2ccc3ccccc32)C(OC(C)=O)C1OC(C)=O (configuration not stated) is 1.9-fold higher in IC50: 45.4 µM for the first, 88.1 µM for the second. The first is the more potent here.

First: Cc1ccc(C)n1/N=C1/NC(=O)CS1
Second: O=C(CCN1C(=O)/C(=C/c2cccs2)SC1=S)NC1=NCCS1
The IC50 of the first is 52-fold lower: 0.882 µM for the first, 46 µM for the second. The first is the more potent here.

Compared with Cc1oc(-c2ccc(Cl)cc2)cc1-c1nn2c(-c3ccoc3C)nnc2s1, N#CC1=C(N)OC2=C(CCC/C2=C/c2ccoc2)C1c1ccoc1 (configuration not stated) is 2.6-fold higher in IC50: 2.87 µM for the first, 7.35 µM for the second. The first is the more potent here.

COC(=O)C1C(O)C(C)C(O)C(C)(O)/C=C\C=C(/C)C(=O)Nc2c(C)c(OC(C)=O)c3c(c2O)C(=O)C(C)=C2OCOC(=C23)/C(C)=C/C(C)(O)C(O)C(C)C1O (configuration not stated) showed an IC50 of 54.6 µM.

Reference: PubChem BioAssay AID1117361 (Southern Research Institute, 2015)
